Key:
IRAK4 = target: T1, IRAK4 (Homo sapiens, UniProt Q9NWZ3); assay: IRAK4 ADP-Glo assay; type: biochemical; conditions: 8 pt curve; read-out: IRAK4 ADP-Glo Kinase, 8 pt
T1 construct: purchased Signalchem I12-10G-20
T1 sequence (Q9NWZ3 1-460): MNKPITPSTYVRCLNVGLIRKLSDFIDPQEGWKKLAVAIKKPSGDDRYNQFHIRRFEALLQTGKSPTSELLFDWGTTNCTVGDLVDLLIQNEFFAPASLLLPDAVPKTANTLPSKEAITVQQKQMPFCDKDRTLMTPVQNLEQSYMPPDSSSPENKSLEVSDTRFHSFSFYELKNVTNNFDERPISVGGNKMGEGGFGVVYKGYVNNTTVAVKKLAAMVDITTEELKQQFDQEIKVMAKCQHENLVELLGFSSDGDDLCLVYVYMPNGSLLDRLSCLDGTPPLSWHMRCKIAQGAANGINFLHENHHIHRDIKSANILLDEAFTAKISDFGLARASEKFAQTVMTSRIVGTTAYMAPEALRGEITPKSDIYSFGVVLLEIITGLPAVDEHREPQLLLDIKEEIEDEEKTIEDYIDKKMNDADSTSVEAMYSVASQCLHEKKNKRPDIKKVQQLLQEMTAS
Experimental: IRAK4 Kinase Enzyme (Signalchem, I12-10G-20); 0.1M DTT (Signalchem, D86-09B); MBP Substrate (Signalchem, M42-51N); ADP Glo (Promega, V9101); 1M MgCl2 (Teknova, M03304); 1M Tris-HCl pH7.4 (Teknova, T1074); BSA (Sigma (A3059); Distilled H2O
Wallac Victor2 1420 Multilabel Counter
The ADP-Glo™ reagents were thawed at ambient temperature. The Kinase Detection Reagent was prepared by mixing kinase detection buffer with the lyophilized kinase detection substrate, and set aside.
A stock volume of 5× Reaction Kinase Buffer was made with a final concentration of 100 mM MgCl2, 200 mM Tris-HCl, and 0.5 mg/ml of BSA, in distilled H2O with a final pH7.4. A 2× working stock volume of Reaction Kinase Buffer was made containing a final concentration of […].
The components of IRAK4 Enzyme were thawed on ice. Diluted IRAK4 in 1× Kinase Reaction Buffer (diluted from 2× buffer) was prepared at […]. A […] working stock ATP Assay Solution was prepared in 1× Kinase Reaction Buffer (diluted from 2× buffer).
The compound was diluted in DMSO from 250 µM in 4-fold series dilutions for 8 points. Then diluted 1:5 in 2× Reaction Buffer in a 96 well plate. 1.01 was transferred to a 384 well plate in duplicate. […] 1 μl of 1 mg/ml stock solution of MBP substrate was added NOTE: MBP can be combined with ATP mix with equal volume and then added at 2 d/well. Final reaction volume was 5 μl.
The plate was centrifuged and the reaction mixture was incubated at room temperature for 60 minutes or at 30° C. for 30 minutes.
The reaction was terminated and the remaining ATP was depleted by adding 5 μl of ADP-Glo™ Reagent. The 384-well plate was centrifuged and then the reaction mixture was incubated for another 40 minutes at ambient temperature.
10 μl of the Kinase Detection Reagent was added. The plate was centrifuged and then the reaction mixture was incubated for another 30 minutes at ambient temperature.
The 384-well reaction plate was read using the WALLAC plate reader (Luminescence 0.1s).

TNFa [1] = assay: TNFa ELISA, PBMC, Resiquimod (R848) stimulated; type: cell-based; conditions: 10 pt curve
IRAK1 = IRAK1 (Homo sapiens, UniProt P51617); assay: IRAK1 ADP-Glo Kinase assay; type: biochemical; conditions: 8 pt curve
Sequence of IRAK1 (P51617 whole entry): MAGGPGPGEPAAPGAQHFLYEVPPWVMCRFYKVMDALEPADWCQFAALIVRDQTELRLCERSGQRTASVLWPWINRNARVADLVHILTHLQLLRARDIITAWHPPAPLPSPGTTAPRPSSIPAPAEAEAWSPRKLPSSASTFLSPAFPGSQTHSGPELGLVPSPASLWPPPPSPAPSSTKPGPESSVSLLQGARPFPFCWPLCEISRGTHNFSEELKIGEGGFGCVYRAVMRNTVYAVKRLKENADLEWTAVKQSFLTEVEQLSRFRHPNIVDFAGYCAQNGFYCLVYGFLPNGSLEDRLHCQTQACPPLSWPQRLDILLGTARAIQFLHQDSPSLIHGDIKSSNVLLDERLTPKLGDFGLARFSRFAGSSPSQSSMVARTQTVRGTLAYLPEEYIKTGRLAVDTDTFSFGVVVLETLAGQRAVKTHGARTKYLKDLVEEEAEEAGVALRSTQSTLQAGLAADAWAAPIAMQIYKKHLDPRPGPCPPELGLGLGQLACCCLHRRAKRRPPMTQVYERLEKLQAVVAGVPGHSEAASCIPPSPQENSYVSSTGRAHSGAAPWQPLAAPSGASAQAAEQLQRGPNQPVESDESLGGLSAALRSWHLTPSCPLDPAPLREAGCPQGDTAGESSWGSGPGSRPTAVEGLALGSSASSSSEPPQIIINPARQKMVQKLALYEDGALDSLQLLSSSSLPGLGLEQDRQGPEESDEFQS

TNFa [2] = assay: TNFa ELISA, dendritic cells, Gardiquimod stimulated; type: cell-based; conditions: Homo sapiens, Dendritic cell, 10 pt curve

Compound	IC50 (IRAK4)	EC50 (TNFa [1])	IC50 (IRAK1)	EC50 (TNFa [2])
CS(=O)(=O)c1c[nH]c(=O)c2cc3ccnc(OC[C@@H]4CCC(=O)N4)c3cc12 [I-48, (S)-4-(methylsulfonyl)-6-((5-oxopyrrolidin-2-yl)methoxy)pyrido[3,4-g]isoquinolin-1(2H)-one]	13800 nM	10100 nM	–	–
C#CC(C)(O)c1c[nH]c(=O)c2cc3ccnc(OC[C@@H]4CCC(=O)N4)c3cc12 (stereo partly drawn) [I-37, 4-(2-hydroxybut-3-yn-2-yl)-6-(((S)-5-oxopyrrolidin-2-yl)methoxy)pyrido[3,4-g]isoquinolin-1(2H)-one]	1210 nM	–	11000 nM	44000 nM
CC[C@@H]1[C@H](F)C(=O)N[C@@H]1COc1nccc2cc3c(=O)[nH]cc(C(C)C)c3cc12 [I-51, 6-(((2S,3S,4S)-3-ethyl-4-fluoro-5-oxopyrrolidin-2-yl)methoxy)-4-isopropylpyrido[3,4-g]isoquinolin-1(2H)-one]	10 nM	4 nM	77.4 nM	–
N#Cc1c[nH]c(=O)c2cc3ccnc(OC[C@@H]4CCC(=O)N4)c3cc12 [I-16, (S)-1-oxo-6-((5-oxopyrrolidin-2-yl)methoxy)-1,2-dihydropyrido[3,4-g]isoquinoline-4-carbonitrile]	22.2 nM	1660 nM	10300 nM	–
C=C(C)c1c[nH]c(=O)c2cc3ccnc(OC[C@@H]4CCC(=O)N4)c3cc12 [I-11, (S)-6-((5-oxopyrrolidin-2-yl)methoxy)-4-(prop-1-en-2-yl)pyrido[3,4-g]isoquinolin-1(2H)-one]	7.8 nM	75 nM	6490 nM	–
O=C1CC[C@@H](COc2nccc3cc4c(=O)[nH]ccc4cc23)N1 [I-5, (S)-6-((5-oxopyrrolidin-2-yl)methoxy)pyrido[3,4-g]isoquinolin-1(2H)-one]	160 nM	4390 nM	–	5680 nM
CC(C)(O)C#Cc1c[nH]c(=O)c2cc3ccnc(OC[C@@H]4CCC(=O)N4)c3cc12 [I-49, (S)-4-(3-hydroxy-3-methylbut-1-yn-1-yl)-6-((5-oxopyrrolidin-2-yl)methoxy)pyrido[3,4-g]isoquinolin-1(2H)-one]	–	1440 nM	–	–
CC(C)(N)c1c[nH]c(=O)c2cc3ccnc(OC[C@@H]4CCC(=O)N4)c3cc12 [I-26, (S)-4-(2-aminopropan-2-yl)-6-((5-oxopyrrolidin-2-yl)methoxy)pyrido[3,4-g]isoquinolin-1(2H)-one]	5350 nM	1780 nM	–	–
CC(C)Cc1c[nH]c(=O)c2cc3ccnc(OC[C@@H]4CCC(=O)N4)c3cc12 [I-50, (S)-4-isobutyl-6-((5-oxopyrrolidin-2-yl)methoxy)pyrido[3,4-g]isoquinolin-1(2H)-one]	2190 nM	–	–	–
CC(=O)c1c[nH]c(=O)c2cc3ccnc(OC[C@@H]4CCC(=O)N4)c3cc12 [I-28, (S)-4-acetyl-6-((5-oxopyrrolidin-2-yl)methoxy)pyrido[3,4-g]isoquinolin-1(2H)-one]	27.3 nM	5650 nM	–	–
NC(=O)c1c[nH]c(=O)c2cc3ccnc(OC[C@@H]4CCC(=O)N4)c3cc12 [I-27, (S)-1-oxo-6-((5-oxopyrrolidin-2-yl)methoxy)-1,2-dihydropyrido[3,4-g]isoquinoline-4-carboxamide]	988 nM	–	–	–
O=C1CC[C@@H](COc2nccc3cc4c(=O)[nH]cc(I)c4cc23)N1 [I-6, (S)-4-iodo-6-((5-oxopyrrolidin-2-yl)methoxy)pyrido[3,4-g]isoquinolin-1(2H)-one]	3.1 nM	32.2 nM	–	45.8 nM
NC(=O)Cc1c[nH]c(=O)c2cc3ccnc(OC[C@@H]4CCC(=O)N4)c3cc12 [I-41, (S)-2-(1-oxo-6-((5-oxopyrrolidin-2-yl)methoxy)-1,2-dihydropyrido[3,4-g]isoquinolin-4-yl)acetamide]	2540 nM	–	–	–
O=C1CC[C@@H](COc2nccc3cc4c(=O)[nH]cc(C5CNC5)c4cc23)N1 [I-23, (S)-4-(azetidin-3-yl)-6-((5-oxopyrrolidin-2-yl)methoxy)pyrido[3,4-g]isoquinolin-1(2H)-one]	2400 nM	–	–	–

Reference: patent publication US12459941B2, “Tricyclic IRAK inhibitors” (Rigel Pharmaceuticals, Inc., priority 2022, dated 2025)
